Results from ChEMBL document CHEMBL1201862, “PubChem BioAssay data set” (2004).
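Following 48 hours of exposure in 96-well plates, responses at five concentrations were used to interpolate endpoints linearly. GI50 = concentration required for 50% inhibition of growth.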 Active and inactive are the calls of the source. No stated cut-off is given here; in the data, active = GI50 up to about 1.1 µM and inactive = higher.

Tests used:
Assay in all cases: growth of human tumour cells (NCI), 48 h
[1] = test system: 786-0
[2] = test system: A498
[3] = test system: A549
[4] = test system: ACHN
[5] = test system: BT-549
[6] = test system: CAKI-1
[7] = test system: COLO 205
[8] = test system: DU-145
[9] = test system: EKVX
[10] = test system: HCC 2998
[11] = test system: HCT-116
[12] = test system: HCT-15
[13] = test system: HOP-62
[14] = test system: HOP-92
[15] = test system: HT-29
[16] = test system: IGROV-1
[17] = test system: K562
[18] = test system: KM12
[19] = test system: M14
[20] = test system: MCF7
[21] = test system: MDA-MB-231
[22] = test system: MDA-MB-435
[23] = test system: MDA-N
[24] = test system: MOLT-4
[25] = test system: Malme-3M
[26] = test system: NCI-H226
[27] = test system: NCI-H23
[28] = test system: NCI-H460
[29] = test system: NCI-H522
[30] = test system: NCI/ADR-RES
[31] = test system: OVCAR-4
[32] = test system: OVCAR-5
[33] = test system: PC-3
[34] = test system: RPMI-8226
[35] = test system: RXF 393
[36] = test system: SF-268
[37] = test system: SF-295
[38] = test system: SK-MEL-28
[39] = test system: SK-MEL-2
[40] = test system: SK-MEL-5
[41] = test system: SK-OV-3
[42] = test system: SN12C
[43] = test system: SNB-19
[44] = test system: SNB-75
[45] = test system: SW-620
[46] = test system: TK-10
[47] = test system: U-251
[48] = test system: UACC-257
[49] = test system: UACC-62
[50] = test system: UO-31
[51] = test system: CCRF-CEM
[52] = test system: HL-60
[53] = test system: Hs-578T
[54] = test system: LOX IMVI
[55] = test system: OVCAR-3
[56] = test system: OVCAR-8
[57] = test system: SF-539
[58] = test system: SR
[59] = test system: T47D

Clc1ccc(Nc2nnc(CNc3ccc(-c4nnc(Nc5ccc(Cl)cc5)s4)cc3)s2)cc1 was tested, and the GI50 [1] was 24.2 µM (inactive), the GI50 [2] was 28.9 µM (inactive) and the GI50 [3] was 16.1 µM (inactive). For the same molecule, the GI50 [4] was 20.2 µM (inactive), the GI50 [5] was 71.9 µM (inactive) and the GI50 [6] was 42.6 µM (inactive). The GI50 [7] was 20.2 µM (inactive), the GI50 [8] was 22.5 µM (inactive) and the GI50 [9] was 49.1 µM (inactive). For the same molecule, the GI50 [10] was 13.4 µM (inactive), the GI50 [11] was 12.5 µM (inactive) and the GI50 [12] was 25.1 µM. The GI50 [13] was 30.4 µM (inactive), the GI50 [14] was 74.6 µM (inactive) and the GI50 [15] was 11 µM (inactive). For the same molecule, the GI50 [16] was 41.2 µM (inactive), the GI50 [17] was 7.71 µM (inactive) and the GI50 [18] was 11 µM (inactive). For the same molecule, the GI50 [19] was 22.8 µM (inactive), the GI50 [20] was 17.9 µM (inactive) and the GI50 [21] was 25.8 µM (inactive). For the same molecule, the GI50 [22] was 28.1 µM (inactive), the GI50 [23] was 18.2 µM (inactive) and the GI50 [24] was 19 µM (inactive). The GI50 [25] was 52.5 µM (inactive), the GI50 [26] was 34.9 µM (inactive) and the GI50 [27] was 39.3 µM (inactive). The GI50 [28] was 15.2 µM (inactive), the GI50 [29] was 12.8 µM (inactive) and the GI50 [30] was 48.4 µM (inactive). For the same molecule, the GI50 [31] was 27.5 µM (inactive), the GI50 [32] was 23.6 µM (inactive) and the GI50 [33] was 15 µM (inactive). For the same molecule, the GI50 [34] was 18.4 µM (inactive), the GI50 [35] was 35.8 µM (inactive) and the GI50 [36] was 26.9 µM (inactive). The GI50 [37] was 24.9 µM (inactive), the GI50 [38] was 33.3 µM (inactive) and the GI50 [39] was 11.7 µM (inactive). For the same molecule, the GI50 [40] was 24.9 µM (inactive), the GI50 [41] was 47.3 µM (inactive) and the GI50 [42] was 47.8 µM (inactive). For the same molecule, the GI50 [43] was 30.1 µM (inactive), the GI50 [44] was > 100 µM (inactive) and the GI50 [45] was 28.4 µM (inactive). The GI50 [46] was 46.3 µM (inactive), the GI50 [47] was 24.2 µM (inactive) and the GI50 [48] was 34 µM (inactive). The GI50 [49] was 21.2 µM (inactive) and the GI50 [50] was 4.68 µM (inactive).
For O=C(Nc1ccn(C2CCC(COC(c3ccccc3)(c3ccccc3)c3ccccc3)O2)c(=O)n1)c1ccccc1 (centres undefined), the GI50 [1] was 2.64 µM (inactive), the GI50 [2] was 5 µM (inactive) and the GI50 [3] was 4.21 µM (inactive). For the same molecule, the GI50 [4] was 3.8 µM (inactive), the GI50 [6] was 4.51 µM (inactive) and the GI50 [51] was 3.28 µM (inactive). The GI50 [7] was 1.77 µM (inactive), the GI50 [8] was 7.91 µM (inactive) and the GI50 [9] was 5.11 µM (inactive). For the same molecule, the GI50 [10] was 11.5 µM (inactive), the GI50 [11] was 3.33 µM (inactive) and the GI50 [12] was 4.18 µM. The GI50 [52] was 1.83 µM (inactive), the GI50 [13] was 10.7 µM (inactive) and the GI50 [14] was 1.86 µM (inactive). For the same molecule, the GI50 [15] was 2.4 µM (inactive), the GI50 [53] was 3.54 µM (inactive) and the GI50 [16] was 6.04 µM (inactive). The GI50 [17] was 2.86 µM (inactive), the GI50 [18] was 5.87 µM (inactive) and the GI50 [54] was 2.72 µM (inactive). For the same molecule, the GI50 [19] was 3.48 µM (inactive), the GI50 [20] was 4.22 µM (inactive) and the GI50 [21] was 5.87 µM (inactive). For the same molecule, the GI50 [22] was 3.42 µM (inactive), the GI50 [23] was 3.57 µM (inactive) and the GI50 [24] was 2.56 µM (inactive). For the same molecule, the GI50 [25] was 3.18 µM (inactive), the GI50 [26] was 6.9 µM (inactive) and the GI50 [27] was 2.31 µM (inactive). The GI50 [28] was 2.92 µM (inactive), the GI50 [29] was 5.32 µM (inactive) and the GI50 [30] was 2.72 µM (inactive). The GI50 [55] was 2.4 µM (inactive), the GI50 [31] was 2.82 µM (inactive) and the GI50 [32] was 3.76 µM (inactive). The GI50 [56] was 4.82 µM (inactive), the GI50 [33] was 1.5 µM (inactive) and the GI50 [34] was 2.31 µM (inactive). For the same molecule, the GI50 [35] was 2.9 µM (inactive), the GI50 [36] was 7.64 µM (inactive) and the GI50 [37] was 3.11 µM (inactive). The GI50 [57] was 3.43 µM (inactive), the GI50 [38] was 9.23 µM (inactive) and the GI50 [39] was 2.48 µM (inactive). For the same molecule, the GI50 [40] was 2.78 µM (inactive), the GI50 [41] was 9.44 µM (inactive) and the GI50 [42] was 1.88 µM (inactive). The GI50 [43] was 5.66 µM (inactive), the GI50 [44] was 2.39 µM (inactive) and the GI50 [58] was 2.34 µM (inactive). The GI50 [45] was 4.94 µM (inactive), the GI50 [59] was 7.46 µM (inactive) and the GI50 [46] was 5.12 µM (inactive). For the same molecule, the GI50 [47] was 4.06 µM (inactive), the GI50 [48] was 6.81 µM (inactive) and the GI50 [49] was 5.5 µM (inactive). For the same molecule, the GI50 [50] was 5.3 µM (inactive).
With Cc1ccc(S(=O)(=O)Nn2c(S)c(C#N)c(-c3ccc(N(C)C)cc3)c(C#N)c2=O)cc1 the GI50 [1] was 28.6 µM (inactive), the GI50 [2] was 17.3 µM (inactive) and the GI50 [3] was 40.5 µM (inactive). The GI50 [4] was 20.6 µM (inactive), the GI50 [5] was 22.2 µM (inactive) and the GI50 [6] was > 100 µM (inactive). For the same molecule, the GI50 [51] was 5.57 µM (inactive), the GI50 [7] was 22 µM (inactive) and the GI50 [8] was 40.6 µM (inactive). For the same molecule, the GI50 [9] was 23.6 µM (inactive), the GI50 [10] was 38.2 µM (inactive) and the GI50 [11] was 28.2 µM (inactive). The GI50 [12] was 20.3 µM, the GI50 [52] was 20.7 µM (inactive) and the GI50 [14] was 29.6 µM (inactive). For the same molecule, the GI50 [16] was 10.8 µM (inactive), the GI50 [17] was 38.8 µM (inactive) and the GI50 [18] was 24.6 µM (inactive). The GI50 [54] was 22.1 µM (inactive), the GI50 [19] was 31.2 µM (inactive) and the GI50 [20] was 30.8 µM (inactive). The GI50 [21] was > 100 µM (inactive), the GI50 [22] was 19.6 µM (inactive) and the GI50 [23] was > 100 µM (inactive). For the same molecule, the GI50 [24] was 23.4 µM (inactive), the GI50 [25] was 18.7 µM (inactive) and the GI50 [26] was 2.16 µM (inactive). The GI50 [27] was 19.1 µM (inactive), the GI50 [28] was 15.2 µM (inactive) and the GI50 [29] was 14.5 µM (inactive). The GI50 [30] was 32 µM (inactive), the GI50 [31] was 17.1 µM (inactive) and the GI50 [32] was 35 µM (inactive). For the same molecule, the GI50 [56] was 15.9 µM (inactive), the GI50 [34] was 15.6 µM (inactive) and the GI50 [35] was 19.3 µM (inactive). For the same molecule, the GI50 [37] was 34.2 µM (inactive), the GI50 [57] was 19 µM (inactive) and the GI50 [38] was 20.1 µM (inactive). The GI50 [40] was 17.7 µM (inactive), the GI50 [41] was 48.8 µM (inactive) and the GI50 [42] was 26.4 µM (inactive). The GI50 [43] was 43 µM (inactive), the GI50 [44] was 35.2 µM (inactive) and the GI50 [58] was 23.7 µM (inactive). For the same molecule, the GI50 [45] was 18.1 µM (inactive), the GI50 [46] was 19.8 µM (inactive) and the GI50 [47] was 21.5 µM (inactive). The GI50 [48] was 51.4 µM (inactive), the GI50 [49] was 25.7 µM (inactive) and the GI50 [50] was 16.9 µM (inactive).
